Read-outs that look alike come from different tables or passages of the source.
What was measured:
Type in all cases: in vivo
Ctenocephalides felis [1] = assay: Ctenocephalides felis in vitro contact test with adult cat fleas; conditions: application rate 5 μg/cm^2 (=500 g/ha); after 48 h
Description: Ctenocephalides felis—In Vitro Contact Tests with Adult Cat Fleas
(§1) For the coating of the test tubes, 9 mg of active compound are first dissolved in 1 ml of acetone p.a. and then diluted to the desired concentration with acetone p.a. 250 μl of the solution are distributed homogeneously on the inner walls and the base of a 25 ml glass tube by turning and rocking on an orbital shaker (rocking rotation at 30 rpm for 2 h). With 900 ppm of active compound solution and internal surface area 44.7 cm^2, given homogeneous distribution, an area-based dose of 5 μg/cm^2 is achieved.
After the solvent has evaporated off, the tubes are populated with 5-10 adult cat fleas (Ctenocephalides felis), sealed with a perforated plastic lid and incubated in a horizontal position at room temperature and ambient humidity. After 48 h, efficacy is determined. To this end, the tubes are stood upright and the fleas are knocked to the base of the tube. Fleas which remain motionless at the base or move in an uncoordinated manner are considered to be dead or moribund.
100% efficacy means that all the fleas were dead or moribund. 0% efficacy means that no fleas were harmed.

Rhipicephalus sanguineus = Rhipicephalus sanguineus in vitro contact test with adult brown dog ticks; conditions: application rate 5 μg/cm^2 (=500 g/ha); after 48 h
Description: Rhipicephalus sanguineus—In Vitro Contact Tests with Adult Brown Dog Ticks
as §1
After the solvent has evaporated off, the tubes are populated with 5-10 adult dog ticks (Rhipicephalus sanguineus), sealed with a perforated plastic lid and incubated in a horizontal position in the dark at room temperature and ambient humidity. After 48 h, efficacy is determined. To this end, the ticks are knocked to the base of the tube and incubated on a hotplate at 45-50° C. for not more than 5 min. Ticks which remain motionless on the base or move in such an uncoordinated manner that they are unable to deliberately avoid the heat by climbing upwards are considered to be dead or moribund.
An efficacy of 100% means that all the ticks were dead or moribund. 0% efficacy means that none of the ticks were harmed.

Boophilus microplus = Boophilus microplus injection test; conditions: for pest or weed control at 0.02 mg: Rhipicephalus microplus, 168 h
Description: Boophilus microplus—Injection Test
(§2) Solvent: dimethyl sulfoxide
To produce a suitable active compound formulation, 10 mg of active compound are mixed with 0.5 ml of solvent and the concentrate is diluted to the desired concentration with solvent.
1 μl of the active compound solution is injected into the abdomen of 5 engorged adult female cattle ticks (Boophilus microplus). The animals are transferred into dishes and kept in a climate-controlled room.
Efficacy is assessed after 7 days by laying of fertile eggs. Eggs which are not visibly fertile are stored in a climate-controlled cabinet until the larvae hatch after about 42 days. An efficacy of 100% means that none of the ticks has laid any fertile eggs; 0% means that all the eggs are fertile.

Lucilia cuprina = Lucilia cuprina test; conditions: application rate 100 ppm; L1 larvae; after 2 days
Description: as §2
To produce a suitable active compound formulation, 10 mg of active compound are mixed with 0.5 ml of dimethyl sulfoxide, and the concentrate is diluted with water to the desired concentration.
About 20 L1 larvae of the Australian sheep blowfly (Lucilia cuprina) are transferred into a test vessel containing minced horsemeat and the active compound formulation of the desired concentration.
After 2 days, the kill in % is determined. 100% means that all the larvae have been killed; 0% means that no larvae have been killed.

Phaedon cochleariae = Phaedon cochleariae spray test; conditions: for efficacy: after 7 days
Description: Phaedon cochleariae—Spray Test
(§3) Solvent: 78.0 parts by weight of acetone • • 1.5 parts by weight of dimethylformamide
(§4) Emulsifier: alkylaryl polyglycol ether
(§5) To produce a suitable active compound formulation, 1 part by weight of active compound is dissolved with the specified parts by weight of solvent and made up to the desired concentration with water containing an emulsifier concentration of 1000 ppm. To produce further test concentrations, the formulation is diluted with emulsifier-containing water.
Discs of Chinese cabbage leaves (Brassica pekinensis) are sprayed with an active compound formulation of the desired concentration and, after drying, populated with larvae of the mustard beetle (Phaedon cochleariae).
After 7 days, the efficacy in % is determined. 100% means that all the beetle larvae have been killed; 0% means that no beetle larvae have been killed.

Spodoptera frugiperda = Spodoptera frugiperda spray test; conditions: for efficacy: application rate 500 g/ha, after 7 days
Description: Spodoptera frugiperda—Spray Test
as §3, §4, §5
Leaf discs of maize (Zea mays) are sprayed with an active compound formulation of the desired concentration and, after drying, populated with caterpillars of the fall armyworm (Spodoptera frugiperda).
After 7 days, the efficacy in % is determined. 100% means that all the caterpillars have been killed; 0% means that no caterpillar has been killed.

Tetranychus urticae = Tetranychus urticae spray test, OP-resistant; conditions: after 6 days
Description: Tetranychus urticae—Spray Test, OP-Resistant
Solvent: 78.0 Parts by Weight of Acetone • • 1.5 parts by weight of dimethylformamide
as §4, §5
Discs of bean leaves (Phaseolus vulgaris) infested with all stages of the greenhouse red spider mite (Tetranychus urticae) are sprayed with an active compound formulation of the desired concentration.
After 6 days, the efficacy in % is determined. 100% means that all the spider mites have been killed; 0% means that no spider mites have been killed.

[2] = test system: Anopheles gambiae strain RSPH (homozygot kdr); assay: Anopheles test (ANPHGB surface treatment); conditions: read-out: efficacy (mortality in %)
Description: Anopheles Test (ANPHGB Surface Treatment)
Solvent: acetone+2000 ppm rapeseed oil methyl ester (RME)
To produce an appropriate active compound formulation, the active compound is dissolved in the solvent (2 mg/ml). The active compound formulation is pipetted onto a glazed tile and, after it has dried off, adult mosquitoes of the species Anopheles gambiae strain RSPH (homozygot kdr) are placed onto the treated tile. The exposure time is 30 minutes.
24 hours after contact with the treated surface, mortality in % is determined. 100% means that all mosquitoes have been killed; 0% means that none of the mosquitoes have been killed.

Ctenocephalides felis [3] = assay: Ctenocephalides felis oral test; conditions: application rate 100 ppm in citrated cattle blood; after 2 days
Description: Ctenocephalides felis—Oral Test
as §2
To produce a suitable active compound formulation, 10 mg of active compound are mixed with 0.5 ml of dimethyl sulfoxide. Dilution with citrated cattle blood gives the desired concentration.
About 20 unfed adult cat fleas (Ctenocephalides felis) are placed into a chamber which is closed at the top and bottom with gauze. A metal cylinder whose bottom end is closed with parafilm is placed onto the chamber. The cylinder contains the blood/active compound formulation, which can be imbibed by the fleas through the parafilm membrane.
After 2 days, the kill in % is determined. 100% means that all of the fleas have been killed; 0% means that none of the fleas have been killed.

[4] = application rate 20 μg/animal, after 7 days

SMILES	efficacy (fleas dead or moribund) (Ctenocephalides felis [1]) [%]	efficacy (ticks dead or moribund) (Rhipicephalus sanguineus) [%]	efficacy (laying of fertile eggs) (Boophilus microplus; [4]) [%]	efficacy (kill in %) (Lucilia cuprina) [%]	efficacy (Phaedon cochleariae; application rate 500 g/ha) [%]	efficacy (Spodoptera frugiperda) [%]	efficacy (Tetranychus urticae; application rate 500 g/ha) [%]	pest or weed control at 0.02 mg (Boophilus microplus; application rate 20 μg/animal, after 7 days, read-out: efficacy (laying of fertile eggs)) [%]	mortality at 20 mg/m2 ([2]; application rate 20 mg/m^2, exposure 30 minutes, 24 hours after contact) [%]	mortality at 100 mg/m2 ([2]; application rate 100 mg/m^2, exposure 30 minutes, 24 hours after contact) [%]	efficacy (kill in %) (Ctenocephalides felis [3]) [%]	pest or weed control at 0.02 mg (Boophilus microplus; read-out: efficacy (laying of fertile eggs), application rate 20 μg/animal, after 7 days) [%]	pest or weed control at 500 g/ha (Phaedon cochleariae; Phaedon cochleariae, 168 h, read-out: efficacy) [%]	pest or weed control at 500 g/ha (Spodoptera frugiperda; Spodoptera frugiperda, 168 h, read-out: efficacy) [%]	mortality at 20 mg/m2 [2] [%]	efficacy (Tetranychus urticae; application rate 100 g/ha) [%]	efficacy (Phaedon cochleariae; application rate 100 g/ha) [%]
CON(C)CCOc1ccc(COc2cccc3c(Cl)c(Cl)ccc23)cn1 [Example 1]	100	100	100	100	100	100	100										
CON(C)CCOc1ccc(COc2cccc(-c3ccccc3)c2)cn1 [Example 13]	100	100	100		100		90										
CON(C)CCOc1ccc(COc2cccc3c(Cl)c(Cl)ccc23)nc1F [Example 17, 2-[(6-{[(5,6-dichloro-1-naphthyl)oxy]methyl}-2-fluoropyridin-3-yl)oxy]-N-methoxy-N-methylethanamine]								100	80 to 100	80 to 100							
CON(C)CCOc1cnc(COc2ccc(Br)c3ccccc23)c(F)c1 [Example 21]	100	100	100	100	100	100	90				80						
CN(CC#N)CCOc1cnc(COc2ccc(Cl)c3ccccc23)c(F)c1 [Example 27]		100	100		100	100	90										
CN(CC#N)CCOc1cnc(COc2ccc3oc4ccccc4c3c2)c(F)c1 [Example 29, {[2-({6-[(dibenzo[b,d]furan-2-yloxy)methyl]-5-fluoropyridin-3-yl}oxy)ethyl](methyl)amino}acetonitrile]				100							100	100	100	100	80 to 100		
CC(C)N(C)CCOc1cnc(COc2cccc3c(Cl)c(Cl)ccc23)c(F)c1 [Example 44]	100		100		100	100										90	
CON(C)CCOc1cnc(COc2ccc(F)c(-c3cccc(Cl)c3)c2)c(F)c1 [Example 49]	100	100	100	100	100	100	100										
CON(C)CCOc1cnc(COc2ccc(Cl)c(-c3cccc(Cl)c3)c2)c(F)c1 [Example 56]	100	100	100	100	100	100	100										
CON(C)CCOc1cnc(COc2ccc(Cl)c(-c3cccc(F)c3)c2)c(F)c1 [Example 61]	100	100	100	100		100	90				90						
CON(C)CCOc1cnc(COc2ccc(Cl)c(-c3ccccc3)c2)c(F)c1 [Example 63]	100	100	100	100		100	100				95						100
CON(C)CCOc1ccc(COc2cccc(-c3cccc(OC(F)(F)F)c3)c2)nc1 [Example 64]	100	100	100		100	83	90										
CON(C)CCOc1ccc(COc2ccc(F)c(-c3cccc(Cl)c3)c2)nc1 [Example 65]	100	100	100	90		100	100										
CON(C)CCOc1cnc(COc2cccc(-c3ccccc3)c2)c(F)c1 [Example 70]	100	100	100	100	100		90										
CON(C)CCOc1cnc(COc2ccc(Cl)c(OC(F)(F)F)c2)c(F)c1 [Example 72]	100	100	100	100		83	100				95						
CON(C)CCOc1cnc(COc2ccc(Cl)c(I)c2)c(F)c1 [Example 76]	100	100	100		100											90	
